Biological target: T1, ϕ6 P2 (RNA-directed RNA polymerase, RdRP) (Pseudomonas phage phi6, UniProt P11124)
T1 sequence (P11124 1-665): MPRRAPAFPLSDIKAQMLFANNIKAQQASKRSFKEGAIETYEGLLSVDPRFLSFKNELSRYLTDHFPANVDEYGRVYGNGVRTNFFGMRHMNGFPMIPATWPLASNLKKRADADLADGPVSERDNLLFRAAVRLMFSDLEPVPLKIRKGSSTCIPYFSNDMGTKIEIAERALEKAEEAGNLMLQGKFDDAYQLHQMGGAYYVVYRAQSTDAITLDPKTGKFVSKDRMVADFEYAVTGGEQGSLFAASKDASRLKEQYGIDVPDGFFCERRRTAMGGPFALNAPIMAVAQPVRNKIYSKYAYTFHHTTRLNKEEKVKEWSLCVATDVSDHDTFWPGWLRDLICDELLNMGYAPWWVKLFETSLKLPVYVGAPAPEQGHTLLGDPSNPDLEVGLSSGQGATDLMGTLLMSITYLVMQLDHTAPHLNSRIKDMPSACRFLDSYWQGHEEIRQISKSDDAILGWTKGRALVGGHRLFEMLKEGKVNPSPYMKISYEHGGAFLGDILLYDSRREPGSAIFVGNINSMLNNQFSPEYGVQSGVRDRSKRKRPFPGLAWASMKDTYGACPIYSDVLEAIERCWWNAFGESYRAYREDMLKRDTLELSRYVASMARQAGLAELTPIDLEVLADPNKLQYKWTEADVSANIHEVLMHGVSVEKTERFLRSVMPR
Assay: tryptophan fluorescence quenching titration
Format: binding

| Structure (SMILES) | Kd [µM] |
| --- | --- |
| Nc1nc2c(ncn2[C@@H]2O[C@H](COP(=O)(O)OP(=O)(O)NP(=O)(O)O)[C@@H](O)[C@H]2O)c(=O)[nH]1 [GMPPNP] | 317 ± 31 |
| Nc1nc2c(ncn2[C@@H]2O[C@H](COP(=O)(O)CP(=O)(O)OP(=O)(O)O)[C@@H](O)[C@H]2O)c(=O)[nH]1 [GMPCPP] | 271 ± 31 |

From publication PMC2926596 (Nucleic Acids Research, 2010)
